Results published in patent US20080262228A1, “Metabolites of 5-fluoro-8- quinoline and methods of preparation and uses thereof” (Wyeth, priority 2006, published 2008).
Values joined by “and” are separate entries in the source; they are usually repeats but may differ in a detail not shown here. Identical values can stand only once. Each block holds one molecule with its values, some of them ahead of it.

How the values were obtained:
[1] = In vivo metabolism and excretion of [14C]COMPOUND I in male beagle dogs, single oral 3 mg/kg dose; design: species or system dog; conditions: for Cumulative Percent Excretion of Radioactivity in Feces (includes cage rinse): mean ± SD (n = 4)
Description: Dose preparation, animal dosing, and specimen collection were performed at Wyeth Research, Collegeville, Pa. The vehicle contained 2% (w/v) polysorbate 80, NF and 0.5% (w/v) methylcellulose (4000 cps) in water. [^14C]COMPOUND I trisuccinate salt (50.25 mg) and non-labeled COMPOUND I trisuccinate salt (331.9 mg) were suspended in 72 mL of the vehicle by grinding with a mortar and a pestle. The target [^14C]COMPOUND I concentration was approximately 3 mg/mL as free base and 48 μCi/mL with a target specific activity of 16 μCi/mg. Three pre- and post-dose aliquots (100 μL) were taken for the determination of radiochemical purity, drug and radioactivity concentrations and specific activity (see below).
Four male beagle dogs, weighing from 9.4 to 11.5 kg at the time of dosing, were from an in-house colony. Non-fasted dogs were given a single 3 mg/kg (approximately 48 μCi/kg) dose of [^14C]COMPOUND I at a volume of 1 mL/kg via intragastric gavage. Animals were provided Purina dog chow and water ad libitum, and were housed individually in metabolic cages.
Blood samples were collected from the jugular vein at 1, 4, 8, 24, 48, 72 and 120 hr after dose administration into tubes containing potassium EDTA as the anticoagulant and then placed on ice. Aliquots of 200 μL were removed and plasma was harvested immediately from the remaining blood by centrifugation at 4° C. Urine samples were collected into tubes on dry ice from 0-24 and 24-48 hr, and then at ambient temperature at 24 hr intervals for 7 days post-dose. Fecal samples were collected at 24 hr intervals for 7 days post-dose at room temperature. Cage rinses were collected daily by rinsing each cage with approximately 500 mL of 30% ethanol in water. The dose aliquots and biological specimens were stored at approximately −70° C. until analysis.
Triplicate aliquots of diluted dose (20 μL), dose fractions (10 μL) and plasma (50 μL), urine (200 μL) and cage wash (500 μL) from individual dogs were analyzed for radioactivity content. The samples were assayed in a Tri-Carb Model 3100TR liquid scintillation counter (Perkin Elmer) using 5 mL of Ultima Gold scintillation cocktail.
Fecal samples from individual dogs were weighed and homogenized in water at a volume-to-weight ratio of about 4:1 with a Silverson sealed-unit homogenizer at ambient temperature. Triplicate aliquots of whole blood (50 μL) and fecal homogenates (approximately 0.2 g) were placed into Combusto-cones with Combusto-pads and allowed to dry overnight. Samples were combusted with a model 307 Tri-Carb Sample Oxidizer, equipped with an Oximate-80 Robotic Automatic Sampler (Perkin Elmer). The liberated ^14CO2 was trapped with Carbo-Sorb® E carbon dioxide absorber, mixed with PermaFluor® E+liquid scintillation cocktail, and counted in a Tri-Carb Model 3100 TR/LL liquid scintillation counter.
Plasma samples were pooled by mixing equal volumes from four animals at each time point (1, 4, 8 and 24 hr). Aliquots of 2.0 mL of pooled plasma were mixed with 2.0 mL of acetonitrile, placed on ice for about 10 min, and then centrifuged at 4° C. The supernatant was transferred to a clean tube. The protein pellets were extracted two more times with 2.0 mL of acetonitrile. The supernatants from precipitation and extraction of each sample were pooled, mixed, and evaporated at 22° C. under nitrogen in a TurboVap LV evaporator (Caliper Life Sciences, Hopkinton, Mass.) to about 0.8 mL. The concentrated extract was centrifuged, the supernatant volume measured and the extraction efficiency was determined by analyzing duplicate 10 μL aliquots for radioactivity concentrations. For metabolite profiling, an aliquot of the supernatant (200 μL) was injected onto the HPLC column as described hereinbelow, and fractions were collected at 20 second intervals into 96-well Lumaplates (Perkin Elmer).

[2] = Metabolite characterization in cryopreserved hepatocytes; conditions: hepatocyte incubations, 20 μM; R, rat; D, dog; H, human; Media = decomposition product observed in media control
Description: Pooled male rat, dog, and mixed male and female human cryopreserved hepatocytes were used in this study. The cryopreserved hepatocytes (two vials from each species; three to five million viable cells per vial) were thawed in a 37° C. water bath with gentle shaking until the ice was almost melted. The suspensions from the two individual vials of the same species were immediately transferred to a 50 mL centrifuge tube containing pre-warmed thawing media at 37° C. with gentle handshaking to prevent the cells from settling. The cell suspension was centrifuged at 50 g for 5 min at 4° C. Supernatants were discarded and the pellets were resuspended in pre-warmed incubation media (8 mL) at 37° C. […] [^14C]COMPOUND I (20 μM) was incubated in a 12-well plate containing hepatocyte suspensions at 1.0 mL per well in duplicate (≧1 million viable cells/well) at 37° C. for 1 or 4 hr in the presence of 5% CO2:95% O2. Control incubations without hepatocytes were also run under the same conditions. Positive controls containing [^14C]7-ethoxycoumarin (100 μM) were also incubated under the same conditions, but only for 1 hr. At the end of the incubations, reactions were stopped by adding acetonitrile with 2% acetic acid (1 mL), mixed for 10 min, followed by centrifugation at 4000 rpm for 10 min at 4° C. Aliquots (50 μL) of supernatants were analyzed by HPLC with UV and radioactivity flow detection for metabolite profiling, and by LC/MS for metabolite identification as described in below. To determine extraction recovery, aliquots (20 μL) of supernatants were analyzed for radioactivity content utilizing a Packard Tri-Carb Model 3100 TR liquid scintillation counter and 5 mL of Ultima Gold.
The HPLC system used for mass spectrometric analysis was a Waters Alliance model 2695 HPLC system (Waters Corp). It was equipped with a built-in autosampler and a model 996 diode array UV detector. The UV detector was set to monitor 210-400 nm. The HPLC conditions were the same as those described hereinabove with the following exceptions. […]

[3] = 1 hr, 3 mg/kg oral, individual dogs, 3 mg/kg
[4] = 4 hr, 3 mg/kg oral, individual dogs, 3 mg/kg
[5] = 8 hr, 3 mg/kg oral, individual dogs, 3 mg/kg
[6] = 24 hr, 3 mg/kg oral, individual dogs, 3 mg/kg
[7] = 48 hr, 3 mg/kg oral, individual dogs, 3 mg/kg
[8] = 72 hr, 3 mg/kg oral, individual dogs, 3 mg/kg
[9] = 120 hr, 3 mg/kg oral, individual dogs, 3 mg/kg
[10] = 120 hr, 3 mg/kg oral, mean ± SD

Source ([1]; 3 mg/kg oral, P, plasma, F, feces): P, F
percent of total fecal radioactivity ([1]; pooled 0-24 hr fecal sample, 3 mg/kg oral): 1.2%
percent of total fecal radioactivity ([1]; pooled 24-48 hr fecal sample, 3 mg/kg oral): 6.7%
percent of total plasma radioactivity ([1]; pooled plasma, over 24 hr post-dose, 3 mg/kg oral): 71-78%
Source [2]: All
Compound: COc1cc(N2CCN(C3CCN(c4ccc(F)c5cccnc45)CC3)CC2)c2ncccc2c1 [COMPOUND I, 5-Fluoro-8-{4-[4-(6-methoxyquinolin-8-yl)piperazin-1-yl]piperidin-1-yl}quinoline]

Recovery of Radioactivity in Cage Rinse (Percent of Dose) ([1]; 0-24 hr, 3 mg/kg oral, individual dogs, 3 mg/kg): 0.18% and 1.64% and 1.74% and 0.78%
Recovery of Radioactivity in Cage Rinse (Percent of Dose) ([1]; 0-24 hr, 3 mg/kg oral, mean ± SD): 1.09 ± 0.74%
Recovery of Radioactivity in Cage Rinse (Cumulative Percent of Dose) ([1]; 0-48 hr, 3 mg/kg oral, individual dogs, 3 mg/kg): 0.46% and 2.57% and 2.20% and 1.75%
Recovery of Radioactivity in Cage Rinse (Cumulative Percent of Dose) ([1]; 0-48 hr, 3 mg/kg oral, mean ± SD): 1.75 ± 0.92%
Cumulative Percent Excretion of Radioactivity in Feces (includes cage rinse) ([1]; 0-48 hr, 3 mg/kg oral, 3 mg/kg): 61.2% and 61.2 ± 14.1%
Recovery of Radioactivity in Cage Rinse (Cumulative Percent of Dose) ([1]; 0-72 hr, 3 mg/kg oral, individual dogs, 3 mg/kg): 0.65% and 3.00% and 2.57% and 1.97%
Recovery of Radioactivity in Cage Rinse (Cumulative Percent of Dose) ([1]; 0-72 hr, 3 mg/kg oral, mean ± SD): 2.05 ± 1.02%
Recovery of Radioactivity in Cage Rinse (Cumulative Percent of Dose) ([1]; 0-96 hr, 3 mg/kg oral, individual dogs, 3 mg/kg): 0.72% and 3.27% and 2.66% and 2.05%
Recovery of Radioactivity in Cage Rinse (Cumulative Percent of Dose) ([1]; 0-96 hr, 3 mg/kg oral, mean ± SD): 2.18 ± 1.09%
Recovery of Radioactivity in Cage Rinse (Cumulative Percent of Dose) ([1]; 0-120 hr, 3 mg/kg oral, individual dogs, 3 mg/kg): 0.75% and 3.39% and 2.73% and 2.12%
Recovery of Radioactivity in Cage Rinse (Cumulative Percent of Dose) ([1]; 0-120 hr, 3 mg/kg oral, mean ± SD): 2.25 ± 1.13%
Recovery of Radioactivity in Cage Rinse (Cumulative Percent of Dose) ([1]; 0-144 hr, 3 mg/kg oral, individual dogs, 3 mg/kg): 0.79% and 3.49% and 2.77% and 2.17%
Recovery of Radioactivity in Cage Rinse (Cumulative Percent of Dose) ([1]; 0-144 hr, 3 mg/kg oral, mean ± SD): 2.31 ± 1.15%
Recovery of Radioactivity in Cage Rinse (Cumulative Percent of Dose) ([1]; 0-168 hr, 3 mg/kg oral, individual dogs, 3 mg/kg): 0.84% and 3.58% and 2.83% and 2.20%
Recovery of Radioactivity in Cage Rinse (Cumulative Percent of Dose) ([1]; 0-168 hr, 3 mg/kg oral, mean ± SD): 2.36 ± 1.16%
Cumulative Percent Excretion of Radioactivity in Feces (includes cage rinse) ([1]; 0-168 hr, 3 mg/kg oral, 3 mg/kg): 72.8% and 72.8 ± 3.28%
dose excreted in urine ([1]; 3 mg/kg oral): less than 7%
Recovery of Radioactivity in Cage Rinse (Percent of Dose) ([1]; 24-48 hr, 3 mg/kg oral, individual dogs, 3 mg/kg): 0.28% and 0.93% and 0.46% and 0.97%
Recovery of Radioactivity in Cage Rinse (Percent of Dose) ([1]; 24-48 hr, 3 mg/kg oral, mean ± SD): 0.66 ± 0.34%
Recovery of Radioactivity in Cage Rinse (Percent of Dose) ([1]; 48-72 hr, 3 mg/kg oral, individual dogs, 3 mg/kg): 0.19% and 0.43% and 0.37% and 0.22%
Recovery of Radioactivity in Cage Rinse (Percent of Dose) ([1]; 48-72 hr, 3 mg/kg oral, mean ± SD): 0.30 ± 0.12%
Recovery of Radioactivity in Cage Rinse (Percent of Dose) ([1]; 72-96 hr, 3 mg/kg oral, individual dogs, 3 mg/kg): 0.07% and 0.27% and 0.09% and 0.08%
Recovery of Radioactivity in Cage Rinse (Percent of Dose) ([1]; 72-96 hr, 3 mg/kg oral, mean ± SD): 0.13 ± 0.10%
Recovery of Radioactivity in Cage Rinse (Percent of Dose) ([1]; 96-120 hr, 3 mg/kg oral, individual dogs, 3 mg/kg): 0.03% and 0.12% and 0.07% (2×)
Recovery of Radioactivity in Cage Rinse (Percent of Dose) ([1]; 96-120 hr, 3 mg/kg oral, mean ± SD): 0.07 ± 0.04%
Recovery of Radioactivity in Cage Rinse (Percent of Dose) ([1]; 120-144 hr, 3 mg/kg oral, individual dogs, 3 mg/kg): 0.04% (2×) and 0.10% and 0.05%
Recovery of Radioactivity in Cage Rinse (Percent of Dose) ([1]; 120-144 hr, 3 mg/kg oral, mean ± SD): 0.06 ± 0.03%
Recovery of Radioactivity in Cage Rinse (Percent of Dose) ([1]; 144-168 hr, 3 mg/kg oral, individual dogs, 3 mg/kg): 0.05% and 0.09% and 0.06% and 0.03%
Recovery of Radioactivity in Cage Rinse (Percent of Dose) ([1]; 144-168 hr, 3 mg/kg oral, mean ± SD): 0.06 ± 0.03%
Concentration of Total Radioactivity in Whole Blood ([1]; 1 hr, 3 mg/kg oral, mean ± SD): 333 ± 66.3 ng equivalents/mL
Concentration of Total Radioactivity in Plasma ([1]; 1 hr, 3 mg/kg oral, mean ± SD, 3 mg/kg): 424±66.1 ng equivalents/mL
Concentration of Total Radioactivity in Plasma ([1]; 4 hr, 3 mg/kg oral, mean ± SD): 225 ± 72.2 ng equivalents/mL
Concentration of Total Radioactivity in Whole Blood ([1]; 4 hr, 3 mg/kg oral, mean ± SD): 203 ± 59.0 ng equivalents/mL
Concentration of Total Radioactivity in Plasma ([1]; 8 hr, 3 mg/kg oral, mean ± SD): 132 ± 29.2 ng equivalents/mL
Concentration of Total Radioactivity in Whole Blood ([1]; 8 hr, 3 mg/kg oral, mean ± SD): 128 ± 27.2 ng equivalents/mL
Concentration of Total Radioactivity in Whole Blood ([1]; 24 hr, 3 mg/kg oral, mean ± SD): 71.5 ± 24.8 ng equivalents/mL
Concentration of Total Radioactivity in Plasma ([1]; 24 hr, 3 mg/kg oral, mean ± SD, 3 mg/kg): 90.8±45.9 ng equivalents/mL
Concentration of Total Radioactivity in Plasma ([1]; 48 hr, 3 mg/kg oral, mean ± SD): 38.2 ± 15.1 ng equivalents/mL
Concentration of Total Radioactivity in Whole Blood ([1]; 48 hr, 3 mg/kg oral, mean ± SD): 33.9 ± 9.44 ng equivalents/mL
Concentration of Total Radioactivity in Plasma ([1]; 72 hr, 3 mg/kg oral, mean ± SD): 37.9 ± 25.6 ng equivalents/mL
Concentration of Total Radioactivity in Whole Blood ([1]; 72 hr, 3 mg/kg oral, mean ± SD): 24.1 ± 6.14 ng equivalents/mL
Concentration of Total Radioactivity in Plasma [1, 10]: 45.7 ± 0.78 ng equivalents/mL
Concentration of Total Radioactivity in Whole Blood [1, 10]: 19.3 ± 3.26 ng equivalents/mL
administered dose excreted after the completion of the study ([1]; estimated from radioactivity in urine collected for several additional weeks): about 5%
Compound: COc1cc(N2CCN(C3CCN(c4ccc(F)c5cccnc45)CC3)CC2)c2ncccc2c1 [[^14C]COMPOUND I, [piperazine-^14C(U)]-5-fluoro-8-(4-(4-(6-methoxyquinolin-8-yl)piperazin-1-yl)piperidin-1-yl)quinoline trisuccinate]
Concentration of Total Radioactivity in Plasma [1, 3]: 336 ng equivalents/mL and 426 ng equivalents/mL and 496 ng equivalents/mL and 437 ng equivalents/mL
Concentration of Total Radioactivity in Whole Blood [1, 3]: 270 ng equivalents/mL and 284 ng equivalents/mL and 404 ng equivalents/mL and 375 ng equivalents/mL
Concentration of Total Radioactivity in Plasma [1, 4]: 166 ng equivalents/mL and 228 ng equivalents/mL and 326 ng equivalents/mL and 181 ng equivalents/mL
Concentration of Total Radioactivity in Whole Blood [1, 4]: 138 ng equivalents/mL and 201 ng equivalents/mL and 191 ng equivalents/mL and 281 ng equivalents/mL
Concentration of Total Radioactivity in Plasma [1, 5]: 102 ng equivalents/mL and 135 ng equivalents/mL and 171 ng equivalents/mL and 121 ng equivalents/mL
Concentration of Total Radioactivity in Whole Blood [1, 5]: 93.5 ng equivalents/mL and 131 ng equivalents/mL and 160 ng equivalents/mL and 126 ng equivalents/mL
Concentration of Total Radioactivity in Plasma [1, 6]: 49.1 ng equivalents/mL and 69.3 ng equivalents/mL and 155 ng equivalents/mL and 89.7 ng equivalents/mL
Concentration of Total Radioactivity in Whole Blood [1, 6]: 41.2 ng equivalents/mL and 63.3 ng equivalents/mL and 98.5 ng equivalents/mL and 82.9 ng equivalents/mL
Concentration of Total Radioactivity in Plasma [1, 7]: 25.5 ng equivalents/mL and 28.2 ng equivalents/mL and 58.5 ng equivalents/mL and 40.7 ng equivalents/mL
Concentration of Total Radioactivity in Whole Blood [1, 7]: 22.2 ng equivalents/mL and 30.2 ng equivalents/mL and 40.8 ng equivalents/mL and 42.2 ng equivalents/mL
Concentration of Total Radioactivity in Plasma [1, 8]: 17.6 ng equivalents/mL and 21.4 ng equivalents/mL and 73.6 ng equivalents/mL and 39.0 ng equivalents/mL
Concentration of Total Radioactivity in Whole Blood [1, 8]: 16.8 ng equivalents/mL and 22.6 ng equivalents/mL and 25.2 ng equivalents/mL and 31.6 ng equivalents/mL
Concentration of Total Radioactivity in Plasma [1, 9]: 45.1 ng equivalents/mL (2×) and 46.0 ng equivalents/mL and 46.7 ng equivalents/mL
Concentration of Total Radioactivity in Whole Blood [1, 9]: 16.6 ng equivalents/mL and 18.4 ng equivalents/mL and 18.0 ng equivalents/mL and 24.0 ng equivalents/mL
